From patent US11878972B2, “Treatment of neurological disorders” (TORQUR AG, priority 2016, dated 2024)

Assays:
[1] = tested on: LC3-II in STHdh^Q7/Q7 and STHdh^Q111/Q111 cells; assay: Induction of autophagy in STHdh cells (LC3-II, western blot); type: cell-based, mouse; conditions: striatal cells, 4 hours, presence and absence of Bafilomycin A
Description: In order to test whether Cpd. 3 and Cpd. 8 inhibit mTOR signaling and induce autophagy in neuronal cell models of HD, treatment of STHdh^Q111/Q111 and STHdh^Q7/Q7 cells was employed. […] Cells were seeded in 10 cm dishes. When cells were about 80% confluent, cells were differentiated and treated with compounds at the same time. Cells were treated with Cpd. 3 (200 nM, 400 nM, 1230 nM), Cpd. […] At the end of incubation time cells were washed with cold PBS buffer and lysed with 200 μl of RIPA buffer supplemented with 4% Complete protease inhibitor (Roche, Switzerland) and 10% PhosStop (Roche, Switzerland). After 30 min of incubation on ice, lysates were vortexed, centrifuged (20 min, 4° C., 16000 rpm) and supernatants were collected. Protein concentration was determined as described above. 30 μg of protein per sample was analyzed by western blot as described above using the following primary antibodies:
In order to detect levels of LC3-II, an autophagy marker in autophagosomes, cell treatment was performed in the presence and absence of Bafilomycin A, an inhibitor of autophagosome degradation. Thus compounds lead to accumulation of LC3-II levels when autophagy is induced. Cpd. 3 (FIG. 6C) and Cpd. […] For Cpd. […] Cpd.

[2] = tested on: 51Q-HTT-Exon1-eGFP transfected HEK cells; assay: Filter trap assay of mutHTT aggregates; type: cell-based, human; conditions: 8 hours; Cpd. 3 400, 1230 nM; Cpd. 8 130, 1230 nM; INK128 100 nM; Rapamycin 400 nM
Description: HEK cells were transiently transfected with pcDNA3.1/V5-His vector from Clontech (Mountain View, USA) containing the expression sequence for Exon1 of HTT with a 19Q (no aggregation) or 51Q extension and enhanced green fluorescence protein (eGFP) tag using Attractene Transfection Reagent (Qiagen, Netherlands). 1×10^6 cells were seeded in a 6 well plate. On the next day 2 μg DNA were mixed with 95.5 μl transfection media and 4.5 μl transfection reagent. After an incubation time of 15 min the mixture was added to the cells. After 72 hours cells were harvested or fixed for analysis.
HEK cells transfected with 19Q- or 51Q-HTT-Exon1-eGFP were treated with DMSO control. 51Q-HTT-Exon I-eGFP HEK cells form aggregates. These cells were treated with Cpd. 3 (400, 1230 nM), Cpd. […] After 30 min incubation on ice, cells were homogenized (Dounce Homogenizer, Thermo Fisher, USA). 50 μg of protein solution in PBS was supplemented with 2% SDS (Roth, Germany). Samples were sucked through a nitrocellulose membrane (0.45 μm) and washed twice with PBS buffer.

[3] = tested on: autophagic markers LC3II and p62; assay: Induction of autophagy in brain of mice (western blot LC3, p62); type: in vivo, mouse; conditions: single oral administration 50 mg/kg
Description: In order to investigate whether mTOR inhibition by Cpd. 3 and Cpd. 8 induces autophagy—the essential mechanism for huntingtin aggregate clearance-in the brain, BALB/c nude mice were treated with Cpd. 3 and Cpd. 8 as described in sample 5.

[4] = tested on: R6/2 mice (mutHTT aggregates in the striatum); assay: Immunohistochemistry of mutHTT aggregates in striata of long-term treated R6/2 mice; type: in vivo, mouse; conditions: p.o. 11.5 weeks, Cpd. 3 65 mg/kg, Cpd. 8 16.25 mg/kg, versus vehicle controls
Text: An in vivo model of Huntington's disease was used to evaluate the efficacy of Cpd. 3 and cpd. 8 in reducing mutHTT aggregate formation in the striatum. R6/2 mice are a B6CBA-Tg(HDexon1)62Gbp/3J Huntington's disease mouse model expressing exon 1 of the human huntingtin gene with an extension of 160 f 5 CAG repeats. Mice have a severe phenotype that develops between 4 and 12 weeks.
Treatment groups were established from genotype and measurement of weight, rotarod performance and litter. They were distributed equally over the four groups, each group contained 12 animals. R6/2 mice and their wt counterparts were dosed in the following treatment groups: 1. Wt, vehicle (20% SBECD in water, pH 3); 2. R6/2 vehicle (20% SBECD in water, pH 3); 3. R6/2 Cpd. 3 (65 mg/kg); 4. R6/2 Cpd.8 (16.25 mg/kg). Per oral dosing was performed for 6 days with a following drug holiday of 1 day for a total of 11.5 weeks.
To detect mutHTT aggregates, immunostaining of striata was performed. […]
Images were acquired using a Zeiss Axioplan microscope (Plan-NEOFLUAR×40/0.75 objective, AxioCam MRc) and Axiovision 4.8 software (Carl Zeiss Microscopy GmbH, Jena, Germany). Per animal three subsequent sections of the striatum were analyzed, 4 animals were analysed The EM48 positive structures were analyzed with the ImageJ built in particle analysis, with a fixed threshold for all pictures (ImageJ 1.47v; NIH, Bethesda, MD, USA). […]

Nc1cc(C(F)F)c(-c2nc(N3C4CCC3COC4)nc(N3C4CCC3COC4)n2)cn1 [Compound 3, 5-(4-(3-oxa-8-azabicyclo[3.2.1]octan-8-yl)-6-(3-oxa-8-azabicyclo[3.2.1]octan-8-yl)-1,3,5-triazin-2-yl)-4-(difluoromethyl)pyridin-2-amine]
autophagy (LC3-II levels) [1]: induced autophagy in striatal cells | mutHTT aggregates (filter trap) [2]: significant reduction of cytotoxic mutHTT aggregates | autophagic marker LC3II in brain [3]: time-dependent increase | autophagic marker p62 in brain [3]: decrease | number of mutHTT aggregates counted in striata [4]: not changed
